In ChEMBL document CHEMBL1146701, “Discovery of a novel bicycloproline P2 bearing peptidyl alpha-ketoamide LY514962 as HCV protease inhibitor” (Bioorg Med Chem Lett, 2004):

Key:
Huh-7 (Homo sapiens) = experiment: Cytotoxic activity against human hepatoma Huh-7 cells at 100 uM concentration
[1] = tested on: Hepatitis C virus NS3 protease; experiment: Inhibitory activity against Protease using replicon assay […] at 25 uM concentration; conditions: Rattus norvegicus
[2] = In vivo concentration in rat liver exposure 8 hour after oral administration 50 mg/kg; assay type: ADME, organism-based; set-up: dose 50 mg/kg, route oral; conditions: read-out: C
Rattus norvegicus [3] = experiment: In vivo area under curve in rat plasma exposure after oral administration 50 mg/kg; assay type: ADME, organism-based; set-up: dose 50 mg/kg, route oral
[4] = target: Kallikrein-1 (Homo sapiens) (UniProt P06870); experiment: Inhibitory activity against kallikrein; conditions: concentration not given here
Sequence of Kallikrein-1 (Homo sapiens) (P06870 25-262 limits assumed): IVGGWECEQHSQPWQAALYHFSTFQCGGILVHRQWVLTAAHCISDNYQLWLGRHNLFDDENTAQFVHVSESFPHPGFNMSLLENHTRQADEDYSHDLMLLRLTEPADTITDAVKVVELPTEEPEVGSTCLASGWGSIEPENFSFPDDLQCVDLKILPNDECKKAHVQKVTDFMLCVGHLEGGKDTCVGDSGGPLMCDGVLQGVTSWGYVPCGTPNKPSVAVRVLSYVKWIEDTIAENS

[5] = In vivo concentration in rat plasma exposure at 8 hour after oral administration 50 mg/kg; assay type: ADME, organism-based; set-up: dose 50 mg/kg, route oral; conditions: read-out: C
Rattus norvegicus [6] = organism: Rattus norvegicus; experiment: Inhibitory activity against Protease using replicon assay […] at 25 uM concentration
[7] = target: Serine protease 1 (Homo sapiens) (UniProt P07477); experiment: Inhibitory activity against trypsin; conditions: concentration not given here
Sequence of Serine protease 1 (Homo sapiens) (P07477 whole entry): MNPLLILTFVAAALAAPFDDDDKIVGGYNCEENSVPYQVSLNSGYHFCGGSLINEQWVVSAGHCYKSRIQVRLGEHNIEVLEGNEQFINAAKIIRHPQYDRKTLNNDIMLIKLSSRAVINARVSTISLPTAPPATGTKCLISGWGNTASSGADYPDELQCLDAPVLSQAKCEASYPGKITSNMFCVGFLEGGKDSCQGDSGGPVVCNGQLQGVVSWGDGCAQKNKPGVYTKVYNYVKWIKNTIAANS

Rattus norvegicus [8] = experiment: In vivo concentration in rat liver exposure 0-8 hour after oral administration 50 mg/kg; assay type: ADME, organism-based; set-up: dose 50 mg/kg, route oral
[9] = In vivo maximum concentration in rat plasma exposure after oral administration 50 mg/kg; assay type: ADME, organism-based; set-up: dose 50 mg/kg, route oral
[10] = target: Prothrombin (Homo sapiens) (UniProt P00734); experiment: Inhibitory activity against thrombin; conditions: concentration not given here
[11] = target: Plasminogen (Rattus norvegicus) (UniProt Q01177); experiment: Inhibitory activity against plasmin; conditions: concentration not given here
Sequence of Plasminogen (Rattus norvegicus) (Q01177 97-581 limits assumed): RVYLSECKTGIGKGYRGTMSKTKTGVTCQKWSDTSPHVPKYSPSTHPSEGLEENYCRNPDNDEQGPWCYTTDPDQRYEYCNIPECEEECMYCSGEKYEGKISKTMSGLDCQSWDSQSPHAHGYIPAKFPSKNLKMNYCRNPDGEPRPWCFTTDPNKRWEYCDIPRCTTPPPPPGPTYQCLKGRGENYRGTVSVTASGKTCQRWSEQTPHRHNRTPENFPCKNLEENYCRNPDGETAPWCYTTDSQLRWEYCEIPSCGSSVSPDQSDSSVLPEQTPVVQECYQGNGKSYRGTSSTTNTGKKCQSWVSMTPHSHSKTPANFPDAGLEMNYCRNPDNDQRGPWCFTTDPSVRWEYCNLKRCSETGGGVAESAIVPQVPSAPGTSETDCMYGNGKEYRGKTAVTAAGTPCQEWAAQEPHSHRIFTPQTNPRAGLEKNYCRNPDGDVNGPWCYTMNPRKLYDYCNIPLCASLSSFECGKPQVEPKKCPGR
Sequence of Plasminogen (Rattus norvegicus) (Q01177 582-812 limits assumed): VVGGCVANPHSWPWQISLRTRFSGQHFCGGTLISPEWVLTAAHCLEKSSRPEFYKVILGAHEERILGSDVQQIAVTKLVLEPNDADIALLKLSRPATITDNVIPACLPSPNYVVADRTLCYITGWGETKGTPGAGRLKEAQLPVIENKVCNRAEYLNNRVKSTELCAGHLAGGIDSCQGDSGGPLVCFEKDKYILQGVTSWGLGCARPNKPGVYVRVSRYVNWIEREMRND

[12] = tested on: Hepatitis C virus NS3 protease; experiment: Cytotoxic activity against Protease in […] Huh-7 cells at 100 uM

**Q.** With `CCCC(NC(=O)[C@@H]1[C@H]2CC=C[C@H]2CN1C(=O)[C@@H](NC(=O)[C@@H](NC(=O)c1cnccn1)C(C)C)C(C)C)C(=O)C(=O)N[C@@H](C)c1ccccc1` (stereo not given in full) as the compound, how does the inhibition (Huh-7 (Homo sapiens)) read?
**A.** 33%

**Q.** And the inhibition [1]?
**A.** 97%

**Q.** With `CCCC(NC(=O)[C@@H]1[C@H]2CC[C@@H](OCOC)C2CN1C(=O)[C@@H](NC(=O)[C@@H](NC(=O)c1cnccn1)C(C)C)C(C)C)C(=O)C(=O)N[C@@H](C)c1ccccc1` (stereo not given in full) as the compound, how does the inhibition [1] read?
**A.** 98%

**Q.** Which inhibition [1] does the source give for `CCCC(NC(=O)[C@@H]1[C@H]2CCC(F)(F)[C@H]2CN1C(=O)[C@@H](NC(=O)[C@@H](NC(=O)c1cnccn1)C(C)C)C(C)C)C(=O)C(=O)NC1CC1` (stereo not given in full) here?
**A.** 64%

**Q.** With `CCCC(NC(=O)[C@@H]1[C@H]2CCC[C@H]2CN1C(=O)[C@@H](NC(=O)[C@@H](NC(=O)c1cnccn1)C(C)C)C(C)C)C(=O)C(=O)NC1CC1` (stereo not given in full) as the compound, how does the concentration at 8 h [2] read?
**A.** 500 nM

**Q.** And the AUC (Rattus norvegicus [3])?
**A.** 2.86 µg/h/mL

**Q.** And the inhibition [4]?
**A.** 0%

**Q.** And the concentration at 8 h [5]?
**A.** 10 ng/mL

**Q.** And the inhibition (Rattus norvegicus [6])?
**A.** 93%

**Q.** What about the inhibition [7] of the same compound?
**A.** 0%

**Q.** And the Caverage (Rattus norvegicus [8])?
**A.** 6290 nM

**Q.** What about the Cmax [9] of the same compound?
**A.** 2250 ng/mL

**Q.** What about the inhibition [10] of the same compound?
**A.** 12%

**Q.** And the inhibition [11]?
**A.** 5%

**Q.** With `CCCC(NC(=O)[C@@H]1[C@H]2CC[C@H](F)[C@H]2CN1C(=O)[C@@H](NC(=O)[C@@H](NC(=O)c1cnccn1)C(C)C)C(C)C)C(=O)C(=O)N[C@@H](C)c1ccccc1` (stereo not given in full) as the compound, how does the inhibition [12] read?
**A.** 33%

**Q.** What about the inhibition [1] of the same compound?
**A.** 97%

**Q.** With `CCCC(NC(=O)[C@@H]1[C@H]2CC[C@H](F)[C@H]2CN1C(=O)[C@@H](NC(=O)[C@@H](NC(=O)c1cnccn1)C(C)C)C(C)C)C(=O)C(=O)NC1CC1` (stereo not given in full) as the compound, how does the inhibition [1] read?
**A.** 84%

**Q.** Which inhibition (Rattus norvegicus [6]) does the source give for `CCCC(NC(=O)[C@@H]1[C@H]2CCC[C@H]2CN1C(=O)[C@@H](NC(=O)[C@@H](NC(=O)c1cnccn1)C(C)C)C(C)C)C(=O)C(=O)N[C@@H](C)c1ccccc1` (stereo not given in full) here?
**A.** 97%

**Q.** With `CCCC(NC(=O)[C@@H]1[C@H]2CC[C@H](F)[C@H]2CN1C(=O)[C@@H](NC(=O)[C@@H](NC(=O)c1cnccn1)C(C)C)C(C)C)C(=O)C(=O)N[C@@H](Cc1ccccc1)C(=O)O` (stereo not given in full) as the compound, how does the inhibition [1] read?
**A.** -8%

**Q.** For `CCCC(NC(=O)[C@@H]1[C@H]2CC=C[C@H]2CN1C(=O)[C@@H](NC(=O)[C@@H](NC(=O)c1cnccn1)C(C)C)C(C)C)C(=O)C(=O)N[C@@H](C)CC` (stereo not given in full), which inhibition [1] is on record?
**A.** 91%
